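The compound was tested at five concentrations on cells cultured in 96-well plates, with a 48-hour exposure period. GI50 marks 50% less growth.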 The source made the active and inactive calls. No stated cut-off is given here; in the data, active = GI50 up to about 1.1 µM and inactive = higher.
Assays:
Test in all cases: NCI tumour cell line growth inhibition, 48 h
A498 = tested on: A498
COLO 205 = tested on: COLO 205
HCT-116 = tested on: HCT-116
HCT-15 = tested on: HCT-15
K562 = tested on: K562
KM12 = tested on: KM12
M14 = tested on: M14
MOLT-4 = tested on: MOLT-4
Malme-3M = tested on: Malme-3M
NCI-H226 = tested on: NCI-H226
NCI-H23 = tested on: NCI-H23
NCI-H460 = tested on: NCI-H460
NCI-H522 = tested on: NCI-H522
OVCAR-4 = tested on: OVCAR-4
OVCAR-8 = tested on: OVCAR-8
RPMI-8226 = tested on: RPMI-8226
RXF 393 = tested on: RXF 393
SK-MEL-2 = tested on: SK-MEL-2
SNB-75 = tested on: SNB-75
NCI/ADR-RES = tested on: NCI/ADR-RES

SMILES	GI50 (A498)	GI50 (COLO 205)	GI50 (HCT-116)	GI50 (HCT-15)	GI50 (K562)	GI50 (KM12)	GI50 (M14)	GI50 (MOLT-4)	GI50 (Malme-3M)	GI50 (NCI-H226)	GI50 (NCI-H23)	GI50 (NCI-H460)	GI50 (NCI-H522)	GI50 (OVCAR-4)	GI50 (OVCAR-8)	GI50 (RPMI-8226)	GI50 (RXF 393)	GI50 (SK-MEL-2)	GI50 (SNB-75)	GI50 (NCI/ADR-RES)
O=C(c1cc(O)ccc1O)c1ccccc1C(Cl)(Cl)Cl	82.8 µM (inactive)	> 100 µM (inactive)	> 100 µM (inactive)	> 100 µM	61.8 µM (inactive)	> 100 µM (inactive)	88.7 µM (inactive)	33 µM (inactive)	> 100 µM (inactive)	> 100 µM (inactive)	58.2 µM (inactive)	> 100 µM (inactive)	57.1 µM (inactive)	68.5 µM (inactive)	80.9 µM (inactive)	47.5 µM (inactive)	> 100 µM (inactive)	> 100 µM (inactive)	> 100 µM (inactive)	
COC(=O)c1c(OC)cccc1C(=O)O	> 100 µM (inactive)	> 100 µM (inactive)	> 100 µM (inactive)	> 100 µM	> 100 µM (inactive)	> 100 µM (inactive)	> 100 µM (inactive)	> 100 µM (inactive)	> 100 µM (inactive)	> 100 µM (inactive)	> 100 µM (inactive)	> 100 µM (inactive)	> 100 µM (inactive)	> 100 µM (inactive)	> 100 µM (inactive)	> 100 µM (inactive)	> 100 µM (inactive)	> 100 µM (inactive)	> 100 µM (inactive)	
COc1ccc(CNc2nc(NC3CCCCC3)nc(NC3CCCCC3)n2)cc1		3.62 µM (inactive)	2.85 µM (inactive)	2.13 µM	5.08 µM (inactive)	1.21 µM (inactive)	4.42 µM (inactive)	4.25 µM (inactive)	9.25 µM (inactive)	2.99 µM (inactive)	2.4 µM (inactive)	3.44 µM (inactive)	4.31 µM (inactive)	4.02 µM (inactive)	15.4 µM (inactive)	2.66 µM (inactive)	3.09 µM (inactive)	11.4 µM (inactive)	8.81 µM (inactive)	4.24 µM (inactive)
O=C1/C(=C/c2ccc(Cl)cc2)NC(=S)N1CN1CCCCC1	61.5 µM (inactive)	28 µM (inactive)	34.4 µM (inactive)	22.6 µM	34 µM (inactive)	38.7 µM (inactive)	35.1 µM (inactive)	30.2 µM (inactive)	21.5 µM (inactive)	32.3 µM (inactive)	37.2 µM (inactive)		18 µM (inactive)		36.7 µM (inactive)	20 µM (inactive)		73.1 µM (inactive)	36.3 µM (inactive)	19.3 µM (inactive)
C/C(=N\NC(=S)NCc1ccccc1)c1nc2cccnc2[nH]1	17.3 µM (inactive)	14.5 µM (inactive)	3.69 µM (inactive)	4.45 µM	5.35 µM (inactive)	6.34 µM (inactive)	6.01 µM (inactive)	3.44 µM (inactive)	13.4 µM (inactive)	4.44 µM (inactive)	12.8 µM (inactive)	4.29 µM (inactive)	15.1 µM (inactive)	16.4 µM (inactive)	10.1 µM (inactive)	11.5 µM (inactive)		13.1 µM (inactive)	20.2 µM (inactive)	9.98 µM (inactive)
O=C(c1ccccc1)N1CCC(Nc2nccs2)O1 (stereo unspecified)		> 10 µM (inactive)	> 10 µM (inactive)	> 10 µM	> 10 µM (inactive)		> 10 µM (inactive)	> 10 µM (inactive)	> 10 µM (inactive)	> 10 µM (inactive)	> 10 µM (inactive)	> 10 µM (inactive)	> 10 µM (inactive)	> 10 µM (inactive)	> 10 µM (inactive)	> 10 µM (inactive)	> 10 µM (inactive)	> 10 µM (inactive)	> 10 µM (inactive)	> 10 µM (inactive)
Cc1ccc(O)c(Cc2nc3ccccc3nc2-c2cccc(Cl)c2)c1		58.6 µM (inactive)	42.9 µM (inactive)	15.4 µM	28.5 µM (inactive)	59.6 µM (inactive)	> 100 µM (inactive)	17.3 µM (inactive)	> 100 µM (inactive)	44.9 µM (inactive)	69.3 µM (inactive)	54.3 µM (inactive)	20.3 µM (inactive)	10.6 µM (inactive)	> 100 µM (inactive)	22.5 µM (inactive)	> 100 µM (inactive)	46.3 µM (inactive)		44.1 µM (inactive)
CC1(C)C=Cc2c(cc(O)c3c(=O)c4cc(Cl)ccc4[nH]c23)O1		4.43 µM (inactive)	2.99 µM (inactive)	3.27 µM	1.81 µM (inactive)	2.2 µM (inactive)		2.54 µM (inactive)	2.24 µM (inactive)		2.3 µM (inactive)	1.98 µM (inactive)	3.29 µM (inactive)	3.24 µM (inactive)	3.98 µM (inactive)	2.29 µM (inactive)	3.89 µM (inactive)	2.69 µM (inactive)	4.03 µM (inactive)	1.68 µM (inactive)

From ChEMBL document CHEMBL1201862, “PubChem BioAssay data set” (2004)
